Data: US20260159486A1, “BENZO[H]QUINAZOLINE-4-AMINE DERIVATIVES FOR THE TREATMENT OF CANCER” (Redona Therapeutics, Inc., priority 2021, published 2026)

Key:
[1] = tested on: phospho-SRSF6 in MDA-MB-468 cells; experiment: Inhibition of phospho-SRSF6 levels in MDA-MB-468 cells (Western blot); assay type: cell-based; conditions: Homo sapiens, 2 hours, compared to DMSO control
Method: FIG. 1: FIG. 1 provides a representative Western blot showing reduction of phosphorylated-SRSF6 (P—SRSF6) in MDA-MB 468 cells by compounds of the invention. GAPDH was probed for by Western blotting to control for equal protein loading and for normalization of samples. The numbers below the blots show percent inhibition of the P—SRSF6 signal at 100 nM (A) or 10 nM (B) compared to DMSO control.
Assessment of Inhibition of Phospho-SRSF6 Levels in MDA-MB-468 Cells
MDA-MB-468 cells (ATCC, HTB-132) were cultured in DMEM (BioConcept cat. no. 1-26F03) supplemented with 10% FBS (Sigma cat. no. F9665), […] (Sigma cat. no. S8636), 1% Penicillin-Streptomycin (BioConcept cat. no. 4-01FOO-H). When cells reached a density of 70% o in 6-well plates (TPP cat. no. 92006), they were treated either with the test compound vehicle DMSO, or with experimental compounds at a final concentration of either 10 or 100 nM for 2 hours. Thereafter, the culture medium was removed and cells were collected by scraping in Lysis Buffer (20 mM Tris HCl pH7.5, 150 mM NaCl, 1 mM EGTA, 1 mM EDTA, 1% o Triton and 1% o NP-40) containing protease and phosphatase inhibitors (Halt™ Protease&Phosphatase inhibitor cocktail 100× ThermioScientific cat. no. 1861281) and 1 mM PMSF (Fluka cat. no. 93482). Cleared lysates were stored in Eppendorfftubes at −80° C. until use, and protein concentration in lysates was determined using Pierce 660 nm Protein Assay Reagent (ThermioScientific cat. no. 22660). 20 μg proteins were diluted in 4× Laemmli buffer (Biorad cat. no. 161-0747) containing 10% beta-mercaptoethanol, separated by SDS-PAGE using 10% gels, and then transferred to PVDF membranes (Trans Blot Turbo Transfer Pack BioRad cat. no. 1704156) by Trans-Blot® Turbo™ System semidry blotting methodology (BioRad). Primary antibodies were incubated in TBS-0.1% Tween-20 buffer containing 3% BSA Bovine Albumin Fr.V (Millipore cat. no. 81-053-3) overnight at 4° C. The following primary antibodies were used: Mouse anti-phosphoepitope SR proteins clone 1H4 (Millipore cat. no. MABE50) diluted 1:5000, and rabbit anti-GAPDH clone 14C10 (Cell Signaling cat. no. 2118S) to control for equal protein loading, diluted 1:2000. HRP-conjugated secondary antibodies were incubated one hour at room temperature diluted 1:5000 in TBS-0.1% Tween-20 buffer containing […] nonfat-dried bovine milk (Sigma cat. no. M7409). The following secondary antibodies were used: Goat anti-mouse-HRP (Jackson cat. no. 115-035-146) and goat anti-rabbit-HRP (Jackson cat. no. 111-035-144). Membranes were incubated with ECL Prime Western Blot Detection Reagent (Amersham cat. no. RPN2236) to detect specific signals using Fusion SOLO S device (Vilber Lourmat). Pixel intensity of the phopsho-SRSF6 (MW 55 kDa in reference to markers) and GAPDH (MW 37 kDa) signals in the Western blots were determined using Evolution-Capt image analysis software (v17.01, Vilber Lourmat). DMSO control was used to set the phospho-SRSF6 signal at baseline, phospho-SRSF6 signals for each sample were normalized by the respective GAPDH signals and percent intensity of P—SRSF6 signal at 10 and 100 nM compound compared to DMSO control was calculated (see FIG. 1).

recombinant human CLK3 = molecular target: T1, recombinant human CLK3 (Homo sapiens, UniProt P49761); experiment: CLK3 kinase assay (LANCE Ultra); assay type: biochemical; conditions: CLK3 0.5 nM, ATP 300 μM, 3 hours at 30° C.
T1 construct: purchased Thermo Fisher Scientific PV3826
How it was run: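 Recombinant human CLK3 (0.5 nM) with ULight-CREBtide (50 nM) and 300 μM ATP, 3 h at 30 °C in kinase buffer; EDTA stop, then Eu-anti-phospho-CREB antibody (2 nM, 1 h RT), TR-FRET read at 665/620 nm. Inhibition normalized to DMSO and no-ATP wells; IC50 from 4-parameter fit, ten 1:3 concentrations in duplicate.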

T1 sequence (P49761 whole entry): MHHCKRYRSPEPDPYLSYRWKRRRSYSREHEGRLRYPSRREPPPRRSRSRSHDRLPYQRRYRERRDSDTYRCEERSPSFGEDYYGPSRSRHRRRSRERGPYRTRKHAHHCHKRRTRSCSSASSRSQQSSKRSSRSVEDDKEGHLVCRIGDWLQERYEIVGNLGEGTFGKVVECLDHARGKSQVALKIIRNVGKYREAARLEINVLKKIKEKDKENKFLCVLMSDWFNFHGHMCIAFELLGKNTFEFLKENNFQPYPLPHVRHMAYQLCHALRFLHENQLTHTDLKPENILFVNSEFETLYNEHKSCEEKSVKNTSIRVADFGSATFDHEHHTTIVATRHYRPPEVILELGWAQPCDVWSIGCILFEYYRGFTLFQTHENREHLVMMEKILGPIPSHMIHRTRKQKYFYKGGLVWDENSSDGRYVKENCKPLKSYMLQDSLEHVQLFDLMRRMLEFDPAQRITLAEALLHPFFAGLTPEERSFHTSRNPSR

COCCN(C)c1c(O[C@H]2CC[C@H](N)CC2)ccc2c1CC(C)(C)c1c(N)ncnc1-2 [Example 13, 8-(trans-4-aminocyclohexoxy)-N7-(2-methoxyethyl)-N7,5,5-trimethyl-6H-benzo[h]quinazoline-4,7-diamine] was tested, and the inhibition at 0.01 µM ([1]; 10 nM, read-out: >50% p-SRSF6 reduction at 10 nM) was under 50%, the inhibition at 0.1 µM ([1]; 100 nM, read-out: >50% p-SRSF6 reduction at 100 nM) was over 50% and the IC50 (recombinant human CLK3) was 30 to 100 nM.
